According to US20210177828A1, “TAM FAMILY KINASE /AND CSF1R KINASE INHIBITOR AND USE THEREOF” (Nanjing Transthera Biosciences Co., Ltd., priority 2018, published 2021):

Key:
[1] = target: T1, MDA-MB-231 cell pAxl (Homo sapiens, UniProt P30530); test: Inhibitory activity on cell pAxl, MDA-MB-231 cells, hGAS6 stimulation, Western Blot; format: cell-based; settings: hGAS6 200 ng/mL
T1 construct: endogenous in cells; host or cells: MDA-MB-231
T1 sequence (P30530 26-894): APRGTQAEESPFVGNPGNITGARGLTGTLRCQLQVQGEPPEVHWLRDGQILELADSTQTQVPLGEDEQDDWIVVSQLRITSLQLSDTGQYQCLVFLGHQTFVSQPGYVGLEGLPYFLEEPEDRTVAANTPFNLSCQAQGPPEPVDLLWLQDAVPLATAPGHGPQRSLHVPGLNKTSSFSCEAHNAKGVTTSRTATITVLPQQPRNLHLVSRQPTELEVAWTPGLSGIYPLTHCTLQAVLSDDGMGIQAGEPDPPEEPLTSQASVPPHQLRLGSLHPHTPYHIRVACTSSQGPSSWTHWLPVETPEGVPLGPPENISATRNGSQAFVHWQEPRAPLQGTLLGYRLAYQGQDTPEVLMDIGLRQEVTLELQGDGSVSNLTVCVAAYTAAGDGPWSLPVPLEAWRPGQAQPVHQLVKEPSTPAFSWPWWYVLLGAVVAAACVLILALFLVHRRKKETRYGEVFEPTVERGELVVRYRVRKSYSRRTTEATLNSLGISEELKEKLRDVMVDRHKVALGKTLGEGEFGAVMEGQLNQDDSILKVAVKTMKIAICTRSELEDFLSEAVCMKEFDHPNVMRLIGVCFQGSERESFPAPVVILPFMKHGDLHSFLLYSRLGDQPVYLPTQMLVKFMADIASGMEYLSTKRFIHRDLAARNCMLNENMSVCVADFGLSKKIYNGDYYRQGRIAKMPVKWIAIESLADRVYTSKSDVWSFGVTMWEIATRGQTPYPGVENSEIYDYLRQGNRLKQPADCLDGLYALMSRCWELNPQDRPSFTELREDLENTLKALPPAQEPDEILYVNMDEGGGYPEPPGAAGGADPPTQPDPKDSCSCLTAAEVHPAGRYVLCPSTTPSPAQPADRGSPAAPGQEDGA
Procedure: MDA-MB-231 is a breast cancer cell.
MDA-MB-231 cells were inoculated to a 6-well plate (containing 10% FBS DMEM medium, […] cells per well) and adherently cultivated at 37° C., and 5% CO2 for 18 hrs. The cells were starved overnight, and then compound solutions with different concentrations were added. Compounds 1 and 2 had final concentrations of 1.1, 3.3 and 10 nM, and the remaining compounds had final concentrations of 1.1, 3.3, 10 and 30 nM. […] There was a medium containing 1‰DMSO in the negative control well. The cells were incubated at 37° C., and 5% CO2 for 60 min, and then hGAS6 (R&D, final concentration: 200 ng/mL) was added to each well. The cells were further incubated for 60 min, and then the total protein of the cells was extracted for Western Blot experiment. Gray analysis was performed on the results with Image J software, and IC50 values were calculated with GraphPad 5.0 software. The inhibitory activities of the compounds on cell pAxl were detected.

[2] = target: T2, Tyro-3 (h) (Homo sapiens, UniProt Q06418); test: Enzymatic activity assay, Tyro-3 (h), [γ-33P]-ATP filter assay; format: biochemical; settings: 10 μM ATP, 40 min room temperature; read-out: Inhibitory activity IC50 Tyro-3(h)
T2 sequence (Q06418 41-890): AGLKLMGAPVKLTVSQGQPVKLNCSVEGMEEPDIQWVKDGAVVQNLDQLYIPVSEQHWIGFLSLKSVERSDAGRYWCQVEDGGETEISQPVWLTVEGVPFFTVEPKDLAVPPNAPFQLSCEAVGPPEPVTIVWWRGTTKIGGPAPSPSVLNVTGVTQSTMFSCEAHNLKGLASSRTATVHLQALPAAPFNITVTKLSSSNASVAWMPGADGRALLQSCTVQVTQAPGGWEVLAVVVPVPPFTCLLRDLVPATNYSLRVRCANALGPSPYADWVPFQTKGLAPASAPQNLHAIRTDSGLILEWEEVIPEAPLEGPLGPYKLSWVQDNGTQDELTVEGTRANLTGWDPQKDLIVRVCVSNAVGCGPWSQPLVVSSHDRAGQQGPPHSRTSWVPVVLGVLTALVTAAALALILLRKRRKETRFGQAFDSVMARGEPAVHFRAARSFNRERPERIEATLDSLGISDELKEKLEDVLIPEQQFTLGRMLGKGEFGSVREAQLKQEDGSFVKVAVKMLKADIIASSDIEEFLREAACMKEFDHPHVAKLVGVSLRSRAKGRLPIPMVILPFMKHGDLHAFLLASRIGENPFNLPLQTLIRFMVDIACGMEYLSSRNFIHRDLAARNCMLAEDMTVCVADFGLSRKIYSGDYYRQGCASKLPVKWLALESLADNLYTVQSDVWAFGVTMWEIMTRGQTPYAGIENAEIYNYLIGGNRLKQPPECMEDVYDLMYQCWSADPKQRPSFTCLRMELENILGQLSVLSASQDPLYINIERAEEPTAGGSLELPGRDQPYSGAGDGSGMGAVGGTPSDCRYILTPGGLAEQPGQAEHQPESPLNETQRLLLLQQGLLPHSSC
Procedure: (§1) Compounds were each dissolved in 100% DMSO to prepare stock solutions with a maximum concentration of 500 μM.
(§2) Compound working solutions (50×) were prepared by diluting a compound stock solution to a final concentration of 500, 150, 50, 15, 5, 1.5, 0.5, 0.15 and 0.05 μM.
An enzyme solution with a final concentration of 38 nM was prepared by dissolving Tyro3 (h) enzyme in a mixture of 8 mM MOPS (pH 7.0), 0.2 mM EDTA, 1 mM MnCl2 and 250 μM KVEKIGEGTYGVVYK. A Mg/ATP mixture of 10 mM magnesium acetate and 10 μM [γ-^33P]-ATP was used to activate the enzymatic reaction.
(§3) A compound working solution was added to a 384-well plate, with final concentrations of 10,000, 3,000, 1,000, 300, 100, 30, 10, 3 and 1 nM, and then different enzymatic reaction solutions prepared according to the above conditions were added. The reaction solutions were incubated at room temperature for 40 min, and then 0.5% phosphoric acid solutions were added to terminate the reaction. 10 μL of the reaction solution was added dropwise to P30 filter paper, washed 4 times with a 0.425% phosphoric acid solution and once with methanol, and then placed in a scintillation counter for detection. Gray analysis was performed on the results with Image J software, and IC50 values were calculated with GraphPad 5.0 software.

[3] = target: CSF1R (h) (Homo sapiens, UniProt P07333); test: Enzymatic activity assay, CSF1R (h), [γ-33P]-ATP filter assay; format: biochemical; settings: 10 μM ATP, 40 min room temperature; read-out: Inhibitory activity IC50 CSF1R(h)
Procedure: as §1, §2
An enzyme solution with a final concentration of 64 nM was prepared by dissolving CSF1R enzyme in a mixture of 8 mM MOPS (pH 7.0), 0.2 mM EDTA and 250 μM KKSRGDYMTMQIG. A Mg/ATP mixture of 10 mM magnesium acetate and 10 μM [γ-^33P]-ATP was used to activate the enzymatic reaction.
as §3

CSF1R (h), sequence (P07333 20-972): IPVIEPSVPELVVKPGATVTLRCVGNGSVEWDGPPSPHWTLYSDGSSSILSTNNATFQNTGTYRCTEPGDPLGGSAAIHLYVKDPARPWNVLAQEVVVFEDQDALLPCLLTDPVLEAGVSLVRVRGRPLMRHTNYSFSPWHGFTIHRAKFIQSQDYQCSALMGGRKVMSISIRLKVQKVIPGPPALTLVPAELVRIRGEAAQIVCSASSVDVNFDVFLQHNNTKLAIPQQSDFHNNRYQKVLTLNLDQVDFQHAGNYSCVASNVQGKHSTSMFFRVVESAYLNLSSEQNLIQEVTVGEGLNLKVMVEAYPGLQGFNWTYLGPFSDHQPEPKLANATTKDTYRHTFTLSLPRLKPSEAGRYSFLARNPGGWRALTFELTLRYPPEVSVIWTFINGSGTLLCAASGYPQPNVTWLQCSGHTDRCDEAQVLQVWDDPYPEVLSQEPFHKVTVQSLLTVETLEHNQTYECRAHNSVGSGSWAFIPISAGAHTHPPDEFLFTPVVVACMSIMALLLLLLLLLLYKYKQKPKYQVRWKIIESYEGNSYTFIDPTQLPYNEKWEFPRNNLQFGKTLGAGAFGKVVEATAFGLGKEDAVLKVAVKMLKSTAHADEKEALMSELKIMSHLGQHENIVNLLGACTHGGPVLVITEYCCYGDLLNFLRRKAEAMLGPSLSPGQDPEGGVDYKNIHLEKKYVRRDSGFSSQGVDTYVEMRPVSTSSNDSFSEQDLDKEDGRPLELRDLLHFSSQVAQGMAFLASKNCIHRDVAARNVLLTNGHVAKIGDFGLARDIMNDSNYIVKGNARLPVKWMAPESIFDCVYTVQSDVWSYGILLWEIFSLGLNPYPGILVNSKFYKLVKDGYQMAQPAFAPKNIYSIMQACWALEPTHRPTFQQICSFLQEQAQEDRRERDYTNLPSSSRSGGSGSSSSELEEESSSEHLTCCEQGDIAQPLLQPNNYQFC

Structure (SMILES) | IC50 [1] [nM] | IC50 [2] [nM] | IC50 [3] [nM]
COc1cc2nccc(Oc3ccc(NC(=O)c4cn(CC5CCS(=O)(=O)CC5)cc(-c5ccc(C)cc5)c4=O)nc3)c2cc1OC [Compound 7, N-(5-((6,7-dimethoxyquinolin-4-yl)oxy)pyridin-2-yl)-1-((1,1-dioxotetrahydro-2H-thiopyran-4-yl)methyl)-4-oxo-5-(p-tolyl)-1,4-dihydropyridin-3-carboxamide] | ≤ 1.1 | 192 | –
COc1cc2nccc(Oc3ccc(NC(=O)c4cn(CC5CCOCC5)cc(-c5ccc(C)cc5)c4=O)nn3)c2cc1OC [Compound 24, N-(6-((6,7-dimethoxyquinolin-4-yl)oxy)pyridazin-3-yl)-4-oxo-1-((tetrahydro-2H-pyran-4-yl)methyl)-5-(p-tolyl)-1,4-dihydropyridin-3-carboxamide] | < 10 | 212 | –
COc1cc2nccc(Oc3ccc(NC(=O)c4cn(C5CCOCC5)cc(-c5ccc(F)cc5)c4=O)nc3)c2cc1OC [Compound 27, N-(5-((6,7-dimethoxyquinolin-4-yl)oxy)pyridin-2-yl)-5-(4-fluorophenyl)-4-oxo-1-(tetrahydro-2H-pyran-4-yl)-1,4-dihydropyridin-3-carboxamide] | – | – | < 200
COc1cc2nccc(Oc3ccc(NC(=O)c4cn(CC5CCOCC5)c5ccccc5c4=O)nc3)c2cc1OC [Compound 25, N-(5-((6,7-dimethoxyquinolin-4-yl)oxy)pyridin-2-yl)-4-oxo-1-((tetrahydro-2H-pyran-4-yl)methyl)-1,4-dihydroquinolin-3-carboxamide] | ≤ 503 | 205 | –
Cc1ccc(-c2cn(C3CCOCC3)nc(C(=O)Nc3ccc(Oc4ccnc5cc6c(cc45)OCO6)cn3)c2=O)cc1 [Compound 29, N-(5-([1,3]dioxolo[4,5-g]quinolin-8-yloxy)pyridin-2-yl)-4-oxo-1-(tetrahydro-2H-pyran-4-yl)-5-(p-tolyl)-1,4-dihydropyridazin-3-carboxamide] | – | 321 | –
Cc1ccc(-c2cn(C3CCOCC3)nc(C(=O)Nc3ccc(Oc4ccnc5cc6c(cc45)OCCO6)cn3)c2=O)cc1 [Compound 30, N-(5-((2,3-dihydro-[1,4]dioxino[2,3-g]quinolin-9-yl)oxy)pyridin-2-yl)-4-oxo-1-(tetrahydro-2H-pyran-4-yl)-5-(p-tolyl)-1,4-dihydropyridazin-3-carboxamide] | – | 318 | –

Second part, the molecule after the results:

IC50 [1] [nM] | IC50 [2] [nM] | IC50 [3] [nM] | Structure (SMILES)
– | 37 | < 200 | COc1cc2nccc(Oc3ccc(NC(=O)c4nn(C5CCOCC5)cc(-c5ccc(C)cc5)c4=O)cc3F)c2cc1OC [Compound 28]
< 10 | 28 | – | COc1cc2nccc(Oc3ccc(NC(=O)c4cn(CC5CCSCC5)cc(-c5ccc(C)cc5)c4=O)nc3)c2cc1OC [Compound 9, N-(5-((6,7-dimethoxyquinolin-4-yl)oxy)pyridin-2-yl)-4-oxo-1-((tetrahydro-2H-thiopyran-4-yl)methyl)-5-(p-tolyl)-1,4-dihydropyridin-3-carboxamide]
< 1.1 | 37 | – | COc1cc2nccc(Oc3ccc(NC(=O)c4cn(CC5CCOCC5)cc(-c5ccc(C)cc5)c4=O)nc3)c2cc1OC [Compound 1, N-(5-((6,7-dimethoxyquinolin-4-yl)oxy)pyridin-2-yl)-4-oxo-1-((tetrahydro-2H-pyran-4-yl)methyl)-5-(p-tolyl)-1,4-dihydropyridin-3-carboxamide]
< 1.1 | 34 | – | COc1cc2nccc(Oc3ccc(NC(=O)c4cn(C5CCOCC5)cc(-c5ccc(C)cc5)c4=O)nc3)c2cc1OC [Compound 19, N-(5-((6,7-dimethoxyquinolin-4-yl)oxy)pyridin-2-yl)-4-oxo-1-(tetrahydro-2H-pyran-4-yl)-5-(p-tolyl)-1,4-dihydropyridin-3-carboxamide]
– | 19 | < 200 | COc1cc2nccc(Oc3ccc(NC(=O)c4nn(C5CCOCC5)cc(-c5ccc(F)cc5)c4=O)nc3)c2cc1OC [Compound 34, N-(5-((6,7-dimethoxyquinolin-4-yl)oxy)pyridin-2-yl)-5-(4-fluorophenyl)-4-oxo-1-(tetrahydro-2H-pyran-4-yl)-1,4-dihydropyridazin-3-carboxamide]
– | 78 | < 200 | COc1cc2nccc(Oc3cnc(NC(=O)c4cn(C5CCOCC5)cc(-c5ccc(F)cc5)c4=O)nc3)c2cc1OC [Compound 31, N-(5-((6,7-dimethoxyquinolin-4-yl)oxy)pyrimidin-2-yl)-5-(4-fluorophenyl)-4-oxo-1-(tetrahydro-2H-pyran-4-yl)-1,4-dihydropyridin-3-carboxamide]
≤ 1 | 117 | – | COc1cc2nccc(Oc3ccc(NC(=O)c4cn(CC5CC[S+]([O-])CC5)cc(-c5ccc(C)cc5)c4=O)nc3)c2cc1OC (stereo not shown) [Compound 8, N-(5-((6,7-dimethoxyquinolin-4-yl)oxy)pyridin-2-yl)-1-((1-oxotetrahydro-2H-thiopyran-4-yl)methyl)-4-oxo-5-(p-tolyl)-1,4-dihydropyridin-3-carboxamide]
≤ 3.1 | 94 | – | COc1cc2nccc(Oc3ccc(NC(=O)c4cc(-c5ccc(C)cc5)cn(CC5CCOCC5)c4=O)nc3)c2cc1OC [Compound 13, N-(5-((6,7-dimethoxyquinolin-4-yl)oxy)pyridin 2yl)-2-oxo-1-((tetrahydro-2H-pyran-4-yl)methyl)-5-(p-tolyl)-1,2-dihydropyridin-3-carboxamide]
